# Source: publication PMC3166964 (Biophysical chemistry, 2011)
# Target: T1, caspase-3(D9A,D28A) (Homo sapiens, UniProt P42574, D28A/D9A)
# T1 sequence (P42574 1-175 D9A/D28A limits assumed): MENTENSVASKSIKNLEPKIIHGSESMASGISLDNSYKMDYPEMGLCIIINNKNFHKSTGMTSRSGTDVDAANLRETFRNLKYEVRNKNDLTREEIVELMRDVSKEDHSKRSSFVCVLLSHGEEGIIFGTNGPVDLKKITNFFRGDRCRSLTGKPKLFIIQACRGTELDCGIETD
# T1 sequence (P42574 176-277 limits assumed): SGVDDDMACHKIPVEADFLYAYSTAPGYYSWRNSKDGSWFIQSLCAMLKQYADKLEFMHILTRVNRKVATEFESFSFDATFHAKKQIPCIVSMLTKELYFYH
# Assay: isothermal titration calorimetry
# Format: binding
smiles,measurement,value
"CCN(CC)S(=O)(=O)c1ccc(-c2ccc(S(=O)(=O)N(CC)CC)s2)s1 [compound 42, N2,N2-diethyl-5-{5-[(diethylamino)sulfonyl]-2-thienyl}thiophene-2-sulfonamide]",Kd,~4 µM
